Data: patent US20090215727A1, “INHIBITION OF ATP-MEDIATED, P2X7 DEPENDENT PATHWAYS BY PYRIDOXAL-5-PHOSPHATE AND VITAMIN B6 RELATED COMPOUNDS” (MEDICURE INTERNATIONAL INC., priority 2005, published 2009)
“Also recorded” adds a separate entry of the source.

Tests used:
HEK 293 cells = assay: MTT cell viability assay in parent HEK 293 cells; format: cell-based
Procedure: (§1) Parent (HEK 293) cells, and HEK 293 cells expressing rat P2X7 (HEK 293 P2X7 (rat) cells) were treated with ATP (Sigma, A9062) to determine the effects of ATP on the viability of the cells. Cell viability was determined using an MTT assay (Wen, 2003). Cells were treated with between 0 and 2 μM of ATP. MTT was added to the cell cultures 180 minutes after ATP treatment. The MTT assay was performed 60 minutes after the addition of MTT. Cell viability was directly correlatable to the absorbance of 550 nm light by the cell culture, with a higher absorbance meaning higher cell viability. The cell culture media was removed and the cells were solubilized using DMSO. The absorbance of the solubilized cells was read.
(§2) HEK 293 and HEK 293 P2X7 (rat) cells were treated with 0 to 50 μM of P5P, a vitamin B6 related compound, in sodium salt form (Chemistry Department, CanAm Bioresearch Inc.). Thirty minutes later, cells were treated with 0.4 μM ATP, to determine the effects of ATP on the viability of the MC-1 treated cells. Control cells received sham treatment of P5P, and sham treatment of ATP.
Cell viability was determined using an MTT assay. MTT was added to the cell cultures 180 minutes after ATP treatment. […] Cell viability was directly correlatable to the absorbance of 550 nm light by the cell culture, with a higher absorbance meaning higher cell viability.

rat P2X7 receptor = molecular target: T1, rat P2X7 receptor (Rattus norvegicus, UniProt Q64663); assay: MTT cell viability assay in HEK 293 cells stably expressing rat P2X7 (ATP-mediated, P2X7-dependent cell death); format: cell-based; details: HEK 293 P2X7 (rat) cells
T1 construct: expressed in transfected cells; host or cells: HEK 293
T1 sequence (Q64663 1-595): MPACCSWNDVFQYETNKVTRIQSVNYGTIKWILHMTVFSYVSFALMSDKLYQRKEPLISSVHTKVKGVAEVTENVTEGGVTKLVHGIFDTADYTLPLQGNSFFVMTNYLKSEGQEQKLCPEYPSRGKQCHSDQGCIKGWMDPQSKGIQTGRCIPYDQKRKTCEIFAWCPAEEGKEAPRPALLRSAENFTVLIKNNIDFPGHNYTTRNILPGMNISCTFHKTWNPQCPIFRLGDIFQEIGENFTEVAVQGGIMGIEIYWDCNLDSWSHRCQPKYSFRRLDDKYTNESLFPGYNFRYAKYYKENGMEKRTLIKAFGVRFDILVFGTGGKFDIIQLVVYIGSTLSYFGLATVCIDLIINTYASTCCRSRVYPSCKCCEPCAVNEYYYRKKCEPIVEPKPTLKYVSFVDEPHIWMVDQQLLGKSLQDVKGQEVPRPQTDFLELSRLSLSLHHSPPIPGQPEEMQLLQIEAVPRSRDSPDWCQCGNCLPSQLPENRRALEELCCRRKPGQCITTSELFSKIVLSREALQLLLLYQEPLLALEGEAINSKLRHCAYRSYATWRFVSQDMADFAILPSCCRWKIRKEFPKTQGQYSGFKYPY
Procedure: HEK 293 cells were stably transfected to express rat P2X7 receptor, using standard tissue culture techniques (Surprenant et al, 1996). The cell line was known to not express any of the other P2X receptors (Schachter et al, 1997). Stable expression of P2X7 was confirmed by Western blot (results not shown).
as §1, §2
Cell viability was determined using an MTT assay. MTT was added to the cell cultures 180 minutes after ATP treatment. The MTT assay was performed 60 minutes after the addition of MTT. Cell viability was directly correlatable to the absorbance of 550 nm light by the cell culture, with a higher absorbance meaning higher cell viability.

[1] = tested on: IL-1β processing and release from PMA/LPS stimulated THP-1 cells; assay: ATP-induced processing and release of IL-1β from PMA/LPS stimulated THP-1 cells (human IL-1β ELISA); format: cell-based; details: 5 mM ATP for one hour; for effect on ATP-induced processing and release of IL-1β: test compound 0.5-150 μM, 30 min pretreatment, IL-1β in media by ELISA
Procedure: THP-1 non-adherent, monocytic cells (ATCC) were pre-treated with phorbol-12-myristate-13-acetate (PMA), which differentiated the cells into macrophage-like cells. Briefly, approximately 8×10^6 THP-1 cells were harvested, pelleted, resuspended in media to which PMA was added at a final concentration of 0.5 μM. The cells were incubated for 3 hours, then collected, washed, and plated.
The next day, the cells were treated with lipopolysaccharide (LPS) to stimulate IL-1β production. Briefly, the media was removed and replaced with RPI media+10% fetal calf serum containing 100 ng/ml of LPS. Cells were incubated for an additional 24 hours.
Cells were pretreated for 30 minutes, then the media was replaced with media containing 5 mM ATP as well as the test compound. Cells were exposed to ATP for one hour. Media was then collected and the amount of IL-1β in the media was determined using a human IL-1β ELISA (R&D Systems).
Results were expressed as the mean±sem. Statistical analysis was performed using […] (Medistats). […] IL-1β levels were measured in the cell culture media by ELISA and the results are expressed as a percent of the untreated (baseline) controls.

P2X7 receptors = molecular target: T2, P2X7 receptors (Rattus norvegicus, UniProt Q64663); assay: BzATP-mediated, P2X7-dependent cell death (Examples 1-2 repeated with BzATP); format: cell-based; details: BzATP substituted for ATP; example in present tense
T2 construct: expressed in transfected cells; host or cells: HEK 293
T2 sequence (Q64663 1-595): T1 sequence (Q64663 1-595)
From the text: Examples 1-2 are repeated, substituting BzATP for ATP. BzATP is known to be a specific agonist of P2X7 receptors. This Example yields results consistent with Examples 1-4, further establishing that the pathway utilized is a P2X7 dependent pathway.

IL-1β = assay: Cytokine response of lipopolysaccharide treated rats (plasma IL-1β); format: in vivo, Sprague-Dawley rats; details: blood at 240 min, example in present tense
Procedure: Sprague-Dawley rats weighing approximately 300 g are treated with 1, 3, or 10 mg/kg P5P (or a saline control). Thirty minutes later (t=30), the animals are given a 50 μg/kg intraperitoneal injection of LPS (or a saline control). Temperature of the animals is measured, and a blood sample is collected at 240 minutes post-treatment (t=240).
Blood samples are transferred to heparinized tubes and plasma is separated by centrifugation. Plasma is assayed for IL-1β, [IL-6 and TNF-α].

Q: With `Nc1ncnc2c1ncn2[C@@H]1O[C@H](COP(=O)(O)OP(=O)(O)OP(=O)(O)O)[C@@H](O)[C@H]1O` [ATP, adenosine triphosphate] as the molecule, how does the “cell viability (MTT, absorbance at 550 nm)” value (HEK 293 cells; parent HEK 293 cells, up to 2 μM ATP, MTT added 180 min after ATP) read?
A: did not significantly affect

Q: What about the “ATP concentration from which significant loss in cell viability starts (MTT)” value (rat P2X7 receptor; 0 to 2 μM ATP tested) of the same molecule?
A: ≥ 0.4 µM

Q: What about the “processing and release of IL-1β into the culture media” value ([1]; PMA/LPS primed THP-1 cells, versus untreated baseline) of the same molecule?
A: significant increase

Q: What does the source list for `Cc1ncc(COP(=O)(O)O)c(C=O)c1O` [P5P, pyridoxal-5′-phosphate]?
A: cell viability (MTT) after P5P pretreatment and ATP (HEK 293 cells; HEK 293 cells, 0 to 50 μM P5P 30 min before 0.4 μM ATP): did not have any significant effect; cell viability (MTT) of ATP treated cells after P5P pretreatment (rat P2X7 receptor; 50 μM P5P half an hour before 0.4 μM ATP): significantly improved; viability of P5P pretreated, ATP treated cells compared with control cells (rat P2X7 receptor; 50 μM P5P, 0.4 μM ATP, control = sham P5P and sham ATP): no significant difference; cell viability (MTT) of ATP treated cells after P5P pretreatment (rat P2X7 receptor; 1.5 to 15 μM P5P 30 min before 0.4 μM ATP): did not significantly affect; effect on ATP-induced processing and release of IL-1β [1]: uniquely effective; also recorded: significantly inhibited; protection from BzATP-mediated, P2X7-dependent cell death (P2X7 receptors): Protects Cells; processing and release of IL-1β in vivo (plasma) (IL-1β; rats, 1, 3 or 10 mg/kg P5P 30 min before 50 μg/kg i.p. LPS): significantly inhibits

Q: How did the “effect on ATP-induced processing and release of IL-1β” value (from here on “effect”) [1] turn out when `Cc1ncc(CO)c(C=O)c1O` [pyridoxal] was run?
A: not effective; also recorded: no significant effect

Q: With `Cc1ncc(CO)c(CN)c1O` [pyridoxamine] as the molecule, how does the “effect” value [1] read?
A: not effective; also recorded: no significant effect

Q: With `Cc1ncc(CO)c(CO)c1O` [pyridoxine] as the molecule, how does the “effect” value [1] read?
A: not effective; also recorded: no significant effect

Q: How did the “processing and release of IL-1β [IL-6 and TNF-α] into the plasma” value (IL-1β; rats, 50 μg/kg intraperitoneal LPS) turn out when lipopolysaccharide [LPS] was run?
A: significant increase

Q: With pyridoxamine phosphate as the molecule, how does the “effect” value [1] read?
A: not effective; also recorded: no significant effect
